The target in experiment [1] is T1, High affinity choline transporter 1 (Homo sapiens, UniProt Q9GZV3).
T1 sequence (Q9GZV3 whole entry): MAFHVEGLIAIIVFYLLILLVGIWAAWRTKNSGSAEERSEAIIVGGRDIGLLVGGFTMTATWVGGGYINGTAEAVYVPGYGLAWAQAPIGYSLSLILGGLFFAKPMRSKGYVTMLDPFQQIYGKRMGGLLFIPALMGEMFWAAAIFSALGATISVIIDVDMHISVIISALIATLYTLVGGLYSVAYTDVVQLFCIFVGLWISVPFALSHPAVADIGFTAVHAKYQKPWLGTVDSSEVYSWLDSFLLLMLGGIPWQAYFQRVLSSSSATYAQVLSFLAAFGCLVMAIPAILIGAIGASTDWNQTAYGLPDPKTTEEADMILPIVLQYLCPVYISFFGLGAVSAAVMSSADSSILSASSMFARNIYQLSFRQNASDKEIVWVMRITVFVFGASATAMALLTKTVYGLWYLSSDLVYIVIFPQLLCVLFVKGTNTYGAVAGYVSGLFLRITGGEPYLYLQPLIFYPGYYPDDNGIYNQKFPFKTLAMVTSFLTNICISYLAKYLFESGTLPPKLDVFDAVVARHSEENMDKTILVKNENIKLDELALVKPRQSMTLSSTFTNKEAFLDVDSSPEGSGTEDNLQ
Put plainly: CHT inhibitors, dose response, cell-based, 5-point CRC, membrane potential dye (AID 504840). Type of experiment: functional.

The target of experiment [2] is T1, High affinity choline transporter 1. Put plainly: CHT inhibitors, dose response, cell-based, 10-point CRC, membrane potential dye (AID 588401).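 Note: membrane potential dye fluorescence of choline-evoked depolarization via CHT.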 It is filed as functional.
Experiment [3] has the same target. The experiment is described as follows: inhibitors of CHT choline uptake, dose response, cell-based, 3H-choline uptake, CHT LV-AA trafficking mutant, CRC (AID 602208). Type of experiment: functional.
For experiment [4], the target named is T2, Histone-lysine N-methyltransferase NSD2 (Homo sapiens, UniProt O96028).
T2 sequence (O96028 whole entry): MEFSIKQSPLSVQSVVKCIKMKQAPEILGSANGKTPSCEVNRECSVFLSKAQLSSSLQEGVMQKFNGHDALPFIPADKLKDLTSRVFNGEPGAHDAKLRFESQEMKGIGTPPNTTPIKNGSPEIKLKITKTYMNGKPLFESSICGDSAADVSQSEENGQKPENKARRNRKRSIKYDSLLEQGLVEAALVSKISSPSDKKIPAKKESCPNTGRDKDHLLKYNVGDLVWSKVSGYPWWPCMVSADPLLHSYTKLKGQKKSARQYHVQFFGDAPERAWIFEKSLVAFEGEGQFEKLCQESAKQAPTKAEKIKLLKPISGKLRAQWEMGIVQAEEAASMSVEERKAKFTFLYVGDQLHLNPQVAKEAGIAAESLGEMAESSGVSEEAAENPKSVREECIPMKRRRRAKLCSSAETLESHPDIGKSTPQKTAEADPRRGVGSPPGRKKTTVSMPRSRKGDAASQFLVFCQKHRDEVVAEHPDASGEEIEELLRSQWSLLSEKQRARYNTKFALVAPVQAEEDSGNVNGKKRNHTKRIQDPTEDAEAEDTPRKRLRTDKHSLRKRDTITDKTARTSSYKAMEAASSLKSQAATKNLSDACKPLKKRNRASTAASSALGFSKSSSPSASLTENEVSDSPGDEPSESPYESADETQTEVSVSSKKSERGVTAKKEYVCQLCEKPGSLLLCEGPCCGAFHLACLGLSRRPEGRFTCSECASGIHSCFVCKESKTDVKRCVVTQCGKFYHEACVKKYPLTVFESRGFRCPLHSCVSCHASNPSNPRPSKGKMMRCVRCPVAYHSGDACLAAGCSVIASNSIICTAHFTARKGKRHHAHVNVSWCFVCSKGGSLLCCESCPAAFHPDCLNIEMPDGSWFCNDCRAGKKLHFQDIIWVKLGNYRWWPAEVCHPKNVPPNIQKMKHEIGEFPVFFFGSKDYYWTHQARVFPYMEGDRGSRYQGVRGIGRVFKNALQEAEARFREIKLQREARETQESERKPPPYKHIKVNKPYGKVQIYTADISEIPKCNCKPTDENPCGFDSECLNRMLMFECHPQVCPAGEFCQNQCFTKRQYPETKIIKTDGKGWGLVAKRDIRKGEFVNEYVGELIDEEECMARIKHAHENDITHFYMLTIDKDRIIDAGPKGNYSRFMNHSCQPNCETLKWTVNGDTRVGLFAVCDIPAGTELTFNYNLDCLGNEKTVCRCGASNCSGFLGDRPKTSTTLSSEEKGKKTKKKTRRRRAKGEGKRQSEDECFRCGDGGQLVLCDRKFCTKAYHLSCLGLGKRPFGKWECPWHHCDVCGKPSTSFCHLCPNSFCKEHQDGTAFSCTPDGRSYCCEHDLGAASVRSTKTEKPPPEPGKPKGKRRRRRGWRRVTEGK
Type of experiment: biochemical.

Experiment [5] addresses ATP-dependent molecular chaperone HSP82 (Candida albicans (strain WO-1) (Yeast), UniProt C4YTQ8). The experiment is described as follows: loss of DOC-induced GRE-beta-galactosidase reporter signal, dose response, Hsp90 inhibitor project, S. cerevisiae, luminescence (AID 2400).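 Note: beta-galactosidase luminescence from glucocorticoid response element reporter as proxy for Hsp90 function; inhibitor potency where signal loss means Hsp90 inhibition.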 It is filed as functional, cell-based.
Experiment [6] concerns the target T3, Serine/threonine-protein phosphatase (Candida dubliniensis (strain CD36 / CBS 7987 / NCPF 3949 / NRRLY-17841) (Yeast), UniProt B9W6M3).
T3 sequence (B9W6M3 whole entry): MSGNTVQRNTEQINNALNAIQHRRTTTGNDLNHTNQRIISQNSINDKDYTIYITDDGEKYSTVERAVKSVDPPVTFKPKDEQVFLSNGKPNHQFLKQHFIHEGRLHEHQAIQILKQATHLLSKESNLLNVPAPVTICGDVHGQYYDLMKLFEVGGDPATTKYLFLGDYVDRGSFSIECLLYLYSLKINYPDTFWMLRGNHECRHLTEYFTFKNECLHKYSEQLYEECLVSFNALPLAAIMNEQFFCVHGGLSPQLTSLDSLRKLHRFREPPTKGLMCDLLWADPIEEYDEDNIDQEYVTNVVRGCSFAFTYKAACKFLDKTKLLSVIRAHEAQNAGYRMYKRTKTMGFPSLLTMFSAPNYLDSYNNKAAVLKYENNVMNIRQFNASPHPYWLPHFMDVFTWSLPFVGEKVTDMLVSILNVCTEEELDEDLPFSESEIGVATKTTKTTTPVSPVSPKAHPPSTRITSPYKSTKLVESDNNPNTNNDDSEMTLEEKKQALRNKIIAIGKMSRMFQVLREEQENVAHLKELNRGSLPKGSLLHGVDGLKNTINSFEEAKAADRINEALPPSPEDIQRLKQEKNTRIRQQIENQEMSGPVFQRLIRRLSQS
Put plainly: calcineurin pathway inhibitors in yeast reporter, dose response, S. cerevisiae, CDRE-lacZ, luminescence, secondary (AID 2388).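 Note: yeast reporter cells carrying a calcineurin-responsive lacZ construct stimulated with calcium chloride; luminescent beta-galactosidase reporter signal in whole cells rather than isolated phosphatase activity; potency for inhibition where a drop in reporter signal means calcineurin blockade.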 It is filed as functional, cell-based.

The nature of experiment [7]: C. albicans growth with fluconazole, confirmation, fluorescence, retest (AID 2467). Type of experiment: functional, cell-based.
Experiment [8] can be described thus: NIH-3T3 fibroblast cytotoxicity, dose response, cytotoxicity control, cell-based, fluorescence, Alamar Blue, secondary assay (AID 2327).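 Note: NIH-3T3 mouse fibroblasts cultured with fluconazole at 8 µg/mL.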 Type of experiment: functional. (In general: Resazurin is reduced to fluorescent resorufin, in cell work by metabolically active cells.)
The target of experiment [9] is Potassium voltage-gated channel subfamily KQT member 2 (Rattus norvegicus, UniProt O88943). The experiment is described as follows: KCNQ2 potassium channel inhibitors, dose response, cell-based, automated electrophysiology, set II, rat KCNQ2 (AID 588637). It is filed as functional.
Experiment [10] has as its target Ras and Rab interactor 1/Tyrosine-protein kinase ABL1 (Homo sapiens, UniProt P00519+Q13671). Type of experiment: functional.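 Note: biochemical TR-FRET dose-response test measuring inhibition of binding between Rin1 and Abl proteins.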
The target in experiment [11] is Dual specificity protein phosphatase 3 (Homo sapiens, UniProt P51452). The experiment is described as follows: VHR phosphatase inhibition, dose response, selectivity assay for STEP inhibitor project, biochemical (AID 602374). It is filed as functional. As to conditions: read-out: IC50_Mean.
Experiment [12] deals with Tyrosine-protein phosphatase non-receptor type 11 (Homo sapiens, UniProt Q06124). Put plainly: SHP2 phosphatase inhibition, dose response, selectivity assay for STEP inhibitor project, biochemical (AID 602367). As to conditions: read-out: IC50_Mean. It is filed as functional.
For a further experiment, the target named is T4, Caspase-6 (Homo sapiens, UniProt P55212).
T4 sequence (P55212 whole entry): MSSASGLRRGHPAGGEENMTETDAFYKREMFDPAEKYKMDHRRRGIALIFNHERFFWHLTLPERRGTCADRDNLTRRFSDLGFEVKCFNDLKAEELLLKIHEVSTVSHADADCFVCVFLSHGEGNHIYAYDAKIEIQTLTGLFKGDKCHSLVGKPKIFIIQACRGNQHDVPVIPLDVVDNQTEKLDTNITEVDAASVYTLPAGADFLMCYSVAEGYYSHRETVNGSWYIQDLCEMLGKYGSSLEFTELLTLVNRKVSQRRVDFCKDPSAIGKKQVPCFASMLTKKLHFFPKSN
The experiment is described as follows: human caspase-6 inhibitors, dose response, biochemical, VEID-R110 fluorescence, cherry-pick (AID 720632).

For experiment [13], the target named is Tyrosine-protein phosphatase non-receptor type 5 (Homo sapiens, UniProt P54829). The experiment is described as follows: STEP phosphatase inhibitors, confirmation, biochemical, fluorescence intensity, uHTS hits (AID 602372). It is filed as functional. As to conditions: read-out: IC50_Mean.
A further experiment has as its target Melanocortin receptor 4 (Homo sapiens, UniProt P32245). Type of experiment: functional, cell-based.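 Note: Cell-based assay with luminescence read-out, confirmatory dose-response testing for agonist activity of biased ligands at MC4R; human U2OS cells with tagged receptor and beta-arrestin; potency of agonists that increase receptor coupling to beta-arrestin.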
In experiment [14] the target is T5, Apoptotic protease-activating factor 1 (Homo sapiens, UniProt O14727).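 Note: caspase-3 cleavage of fluorogenic Rh110 DEVD substrate downstream of apoptosome activation.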
T5 sequence (O14727 whole entry): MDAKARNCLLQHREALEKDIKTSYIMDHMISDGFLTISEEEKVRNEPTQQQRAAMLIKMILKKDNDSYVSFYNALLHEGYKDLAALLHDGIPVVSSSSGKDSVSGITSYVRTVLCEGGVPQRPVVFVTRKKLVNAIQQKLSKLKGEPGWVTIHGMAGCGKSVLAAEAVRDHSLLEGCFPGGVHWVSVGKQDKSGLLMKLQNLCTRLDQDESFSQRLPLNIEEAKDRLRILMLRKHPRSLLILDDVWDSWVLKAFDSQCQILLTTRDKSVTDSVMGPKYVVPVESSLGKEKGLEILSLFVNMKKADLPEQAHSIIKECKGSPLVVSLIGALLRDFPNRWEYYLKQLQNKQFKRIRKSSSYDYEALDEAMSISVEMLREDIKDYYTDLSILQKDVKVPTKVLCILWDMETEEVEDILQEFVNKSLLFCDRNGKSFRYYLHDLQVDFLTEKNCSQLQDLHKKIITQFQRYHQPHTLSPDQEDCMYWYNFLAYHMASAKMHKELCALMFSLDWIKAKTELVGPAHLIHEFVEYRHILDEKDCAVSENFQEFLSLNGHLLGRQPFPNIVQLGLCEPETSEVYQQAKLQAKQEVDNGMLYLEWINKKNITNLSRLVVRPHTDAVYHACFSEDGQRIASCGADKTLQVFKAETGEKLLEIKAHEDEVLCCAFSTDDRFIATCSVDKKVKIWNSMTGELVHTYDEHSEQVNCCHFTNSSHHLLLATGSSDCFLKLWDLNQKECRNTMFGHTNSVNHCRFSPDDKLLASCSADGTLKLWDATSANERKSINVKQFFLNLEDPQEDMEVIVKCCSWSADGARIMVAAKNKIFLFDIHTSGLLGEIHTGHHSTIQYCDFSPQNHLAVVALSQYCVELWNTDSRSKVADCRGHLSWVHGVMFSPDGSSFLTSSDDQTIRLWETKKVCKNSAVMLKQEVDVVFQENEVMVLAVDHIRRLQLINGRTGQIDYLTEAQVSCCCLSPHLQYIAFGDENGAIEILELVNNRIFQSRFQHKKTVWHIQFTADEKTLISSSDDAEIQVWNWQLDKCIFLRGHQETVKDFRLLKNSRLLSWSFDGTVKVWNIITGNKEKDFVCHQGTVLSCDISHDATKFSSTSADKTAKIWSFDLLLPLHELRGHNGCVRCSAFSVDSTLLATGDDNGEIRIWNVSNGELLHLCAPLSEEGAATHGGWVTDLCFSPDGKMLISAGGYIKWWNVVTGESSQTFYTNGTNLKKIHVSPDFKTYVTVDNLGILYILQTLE
The experiment is described as follows: SAR analysis of small molecule Activators of Apaf-1 in a Fluorescent assay. As to conditions: read-out: EC50_Mean. It is filed as functional.

Experiment [15] has as its target T6, Low molecular weight phosphotyrosine protein phosphatase (Homo sapiens, UniProt P24666).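 Note: Dose-response confirmation assay measuring inhibition of LMPTP enzyme activity by fluorescence intensity read-out.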
T6 sequence (P24666 whole entry): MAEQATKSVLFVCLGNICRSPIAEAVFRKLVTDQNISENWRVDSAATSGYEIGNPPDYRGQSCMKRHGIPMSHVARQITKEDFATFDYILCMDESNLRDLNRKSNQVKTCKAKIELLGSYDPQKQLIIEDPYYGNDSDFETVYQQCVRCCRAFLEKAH
It is filed as functional. As to conditions: read-out: IC50_Mean.

The source made the active and inactive calls.

The source of these data is ChEMBL document CHEMBL1201862, “PubChem BioAssay data set” (2004).

For orientation: AC50 means the concentration at which the activity in the assay is half-maximal.

Sequence of Ras and Rab interactor 1/Tyrosine-protein kinase ABL1 (P00519 whole entry): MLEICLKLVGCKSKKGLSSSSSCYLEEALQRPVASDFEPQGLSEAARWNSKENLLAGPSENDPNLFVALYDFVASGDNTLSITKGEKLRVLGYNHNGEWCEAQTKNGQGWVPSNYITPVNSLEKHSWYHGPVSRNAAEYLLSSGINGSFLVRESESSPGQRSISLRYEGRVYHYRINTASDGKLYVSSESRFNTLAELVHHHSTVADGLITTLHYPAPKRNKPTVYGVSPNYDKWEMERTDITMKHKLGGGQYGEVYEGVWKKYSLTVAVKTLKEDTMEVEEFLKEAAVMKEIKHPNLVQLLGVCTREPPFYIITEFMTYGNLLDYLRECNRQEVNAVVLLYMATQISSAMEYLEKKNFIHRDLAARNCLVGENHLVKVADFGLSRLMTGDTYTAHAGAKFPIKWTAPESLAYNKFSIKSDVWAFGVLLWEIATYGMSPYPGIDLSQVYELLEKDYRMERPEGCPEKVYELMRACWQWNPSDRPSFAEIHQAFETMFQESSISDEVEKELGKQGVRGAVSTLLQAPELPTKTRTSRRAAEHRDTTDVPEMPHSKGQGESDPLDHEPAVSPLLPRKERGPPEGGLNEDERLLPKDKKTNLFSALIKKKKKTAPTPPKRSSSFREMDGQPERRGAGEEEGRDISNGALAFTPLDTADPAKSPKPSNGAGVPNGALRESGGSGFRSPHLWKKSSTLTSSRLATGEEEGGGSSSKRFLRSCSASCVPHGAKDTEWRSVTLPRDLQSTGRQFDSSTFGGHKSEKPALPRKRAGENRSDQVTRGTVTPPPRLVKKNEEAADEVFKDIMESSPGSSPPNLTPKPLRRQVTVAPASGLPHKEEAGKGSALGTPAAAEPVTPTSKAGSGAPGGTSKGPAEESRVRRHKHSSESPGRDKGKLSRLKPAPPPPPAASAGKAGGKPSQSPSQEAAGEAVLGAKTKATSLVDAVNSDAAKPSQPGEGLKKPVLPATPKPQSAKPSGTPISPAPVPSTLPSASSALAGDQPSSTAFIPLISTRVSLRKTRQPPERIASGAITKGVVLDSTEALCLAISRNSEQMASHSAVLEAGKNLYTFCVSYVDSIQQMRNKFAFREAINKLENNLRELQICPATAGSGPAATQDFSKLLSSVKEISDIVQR
Sequence of Ras and Rab interactor 1/Tyrosine-protein kinase ABL1 (Q13671 whole entry): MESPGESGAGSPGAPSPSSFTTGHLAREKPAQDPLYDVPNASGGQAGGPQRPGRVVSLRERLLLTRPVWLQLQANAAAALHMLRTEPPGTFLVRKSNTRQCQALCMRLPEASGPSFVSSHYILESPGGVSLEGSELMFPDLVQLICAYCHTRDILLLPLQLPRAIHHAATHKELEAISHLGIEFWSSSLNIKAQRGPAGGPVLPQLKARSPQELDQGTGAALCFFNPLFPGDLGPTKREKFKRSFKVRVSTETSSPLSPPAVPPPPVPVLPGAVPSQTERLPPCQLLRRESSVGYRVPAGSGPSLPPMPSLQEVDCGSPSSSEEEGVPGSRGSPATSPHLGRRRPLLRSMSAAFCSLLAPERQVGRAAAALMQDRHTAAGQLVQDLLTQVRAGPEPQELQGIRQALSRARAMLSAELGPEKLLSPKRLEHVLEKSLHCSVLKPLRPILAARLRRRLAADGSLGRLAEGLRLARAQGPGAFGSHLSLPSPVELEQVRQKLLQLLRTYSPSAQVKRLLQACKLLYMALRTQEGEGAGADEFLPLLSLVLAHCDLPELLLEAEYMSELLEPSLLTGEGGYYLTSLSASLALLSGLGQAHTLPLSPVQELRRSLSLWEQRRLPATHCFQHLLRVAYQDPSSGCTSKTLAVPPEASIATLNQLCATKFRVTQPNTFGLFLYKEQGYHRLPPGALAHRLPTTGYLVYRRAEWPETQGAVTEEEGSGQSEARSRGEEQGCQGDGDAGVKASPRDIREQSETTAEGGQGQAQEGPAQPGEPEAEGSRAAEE
Sequence of Melanocortin receptor 4 (P32245 whole entry): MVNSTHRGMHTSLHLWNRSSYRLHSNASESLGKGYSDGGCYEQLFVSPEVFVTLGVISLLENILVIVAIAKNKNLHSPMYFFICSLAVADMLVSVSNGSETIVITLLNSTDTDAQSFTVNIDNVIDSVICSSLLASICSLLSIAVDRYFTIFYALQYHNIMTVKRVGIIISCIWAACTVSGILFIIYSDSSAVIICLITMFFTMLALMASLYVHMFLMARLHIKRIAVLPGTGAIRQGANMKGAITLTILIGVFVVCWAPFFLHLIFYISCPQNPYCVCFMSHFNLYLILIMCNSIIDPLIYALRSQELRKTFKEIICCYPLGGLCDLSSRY
Sequence of Tyrosine-protein phosphatase non-receptor type 11 (Q06124 whole entry): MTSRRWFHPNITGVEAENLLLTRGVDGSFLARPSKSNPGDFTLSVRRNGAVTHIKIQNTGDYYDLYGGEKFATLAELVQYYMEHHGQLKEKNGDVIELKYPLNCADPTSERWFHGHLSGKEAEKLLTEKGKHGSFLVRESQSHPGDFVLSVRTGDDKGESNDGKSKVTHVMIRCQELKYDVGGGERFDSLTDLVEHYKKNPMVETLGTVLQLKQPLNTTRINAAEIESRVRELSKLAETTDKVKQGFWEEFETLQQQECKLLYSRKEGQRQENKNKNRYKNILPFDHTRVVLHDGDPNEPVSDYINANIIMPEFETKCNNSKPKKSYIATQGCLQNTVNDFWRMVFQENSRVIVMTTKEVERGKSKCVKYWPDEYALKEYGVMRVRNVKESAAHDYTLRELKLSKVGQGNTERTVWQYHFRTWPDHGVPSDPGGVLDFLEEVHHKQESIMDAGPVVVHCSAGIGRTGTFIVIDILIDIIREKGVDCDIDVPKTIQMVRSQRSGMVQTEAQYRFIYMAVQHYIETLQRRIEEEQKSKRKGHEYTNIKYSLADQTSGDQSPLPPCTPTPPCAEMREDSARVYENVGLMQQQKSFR
Sequence of Tyrosine-protein phosphatase non-receptor type 5 (P54829 whole entry): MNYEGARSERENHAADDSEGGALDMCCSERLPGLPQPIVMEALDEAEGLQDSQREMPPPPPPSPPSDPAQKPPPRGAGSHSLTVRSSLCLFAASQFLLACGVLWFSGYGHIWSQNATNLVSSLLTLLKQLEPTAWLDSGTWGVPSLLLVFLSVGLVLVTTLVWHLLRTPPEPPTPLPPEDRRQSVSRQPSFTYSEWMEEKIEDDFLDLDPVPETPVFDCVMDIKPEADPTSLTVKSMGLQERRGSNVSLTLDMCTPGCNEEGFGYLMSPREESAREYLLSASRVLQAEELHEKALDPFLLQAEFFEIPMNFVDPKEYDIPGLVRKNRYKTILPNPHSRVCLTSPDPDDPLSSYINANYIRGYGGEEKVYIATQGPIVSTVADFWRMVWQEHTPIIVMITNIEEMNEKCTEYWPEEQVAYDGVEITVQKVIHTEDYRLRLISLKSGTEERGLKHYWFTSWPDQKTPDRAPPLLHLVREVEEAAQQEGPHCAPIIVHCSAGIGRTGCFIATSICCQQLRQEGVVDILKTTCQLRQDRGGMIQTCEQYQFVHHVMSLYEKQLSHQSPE
Sequence of ATP-dependent molecular chaperone HSP82 (C4YTQ8 whole entry): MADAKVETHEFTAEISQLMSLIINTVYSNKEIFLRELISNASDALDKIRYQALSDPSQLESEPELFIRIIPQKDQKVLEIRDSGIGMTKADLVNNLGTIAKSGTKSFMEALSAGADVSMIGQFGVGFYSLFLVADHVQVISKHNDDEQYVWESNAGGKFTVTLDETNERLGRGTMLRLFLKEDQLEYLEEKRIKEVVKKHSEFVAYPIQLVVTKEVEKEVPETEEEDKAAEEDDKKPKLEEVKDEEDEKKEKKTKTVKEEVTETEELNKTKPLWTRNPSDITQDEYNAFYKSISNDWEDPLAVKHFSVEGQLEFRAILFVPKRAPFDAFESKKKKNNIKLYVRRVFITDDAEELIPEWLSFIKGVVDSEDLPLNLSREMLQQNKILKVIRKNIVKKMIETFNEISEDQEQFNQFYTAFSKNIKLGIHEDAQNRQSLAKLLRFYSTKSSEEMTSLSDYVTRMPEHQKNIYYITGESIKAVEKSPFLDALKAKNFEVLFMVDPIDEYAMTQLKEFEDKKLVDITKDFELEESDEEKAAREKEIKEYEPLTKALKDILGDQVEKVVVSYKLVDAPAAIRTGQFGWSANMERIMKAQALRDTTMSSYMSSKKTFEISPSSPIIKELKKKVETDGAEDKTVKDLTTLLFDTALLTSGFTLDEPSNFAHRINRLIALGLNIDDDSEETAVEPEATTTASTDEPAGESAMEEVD
Sequence of Potassium voltage-gated channel subfamily KQT member 2 (O88943 whole entry): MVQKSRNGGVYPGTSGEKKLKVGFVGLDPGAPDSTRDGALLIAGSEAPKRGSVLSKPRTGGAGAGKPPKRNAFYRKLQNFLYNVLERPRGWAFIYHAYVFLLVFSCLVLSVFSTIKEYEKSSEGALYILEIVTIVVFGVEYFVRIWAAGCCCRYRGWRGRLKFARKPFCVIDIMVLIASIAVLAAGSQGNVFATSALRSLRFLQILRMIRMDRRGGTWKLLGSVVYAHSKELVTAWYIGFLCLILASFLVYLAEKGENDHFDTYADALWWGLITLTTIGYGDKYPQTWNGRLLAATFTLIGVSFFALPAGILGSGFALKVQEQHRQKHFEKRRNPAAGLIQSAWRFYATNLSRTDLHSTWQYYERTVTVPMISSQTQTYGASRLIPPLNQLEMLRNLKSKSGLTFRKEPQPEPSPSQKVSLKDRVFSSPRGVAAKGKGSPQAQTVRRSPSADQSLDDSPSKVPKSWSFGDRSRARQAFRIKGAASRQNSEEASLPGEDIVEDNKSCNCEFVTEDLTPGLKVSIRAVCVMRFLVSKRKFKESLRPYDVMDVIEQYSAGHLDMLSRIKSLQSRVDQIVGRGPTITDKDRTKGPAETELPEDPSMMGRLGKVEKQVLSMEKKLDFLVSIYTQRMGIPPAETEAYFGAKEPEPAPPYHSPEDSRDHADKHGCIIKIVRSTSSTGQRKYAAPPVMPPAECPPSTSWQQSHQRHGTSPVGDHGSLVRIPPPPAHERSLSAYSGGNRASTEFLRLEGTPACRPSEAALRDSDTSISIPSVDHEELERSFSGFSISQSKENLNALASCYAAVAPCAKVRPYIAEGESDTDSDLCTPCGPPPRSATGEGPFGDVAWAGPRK

`CC1CCC(NC(=O)c2cccc(S(=O)(=O)N3CCN(C)CC3)c2)CC1` (configuration not stated): the IC50 in [1] was 4.17 µM (active); in experiment [2], 2.05 µM (active); in [3], 4.68 µM (active).

`COc1ccc(OC)c(/C=C2\SC(=S)N(NS(=O)(=O)c3ccc(C)cc3)C2=O)c1`: the half-maximal activity concentration (AC50) in experiment [4] was 15.9 µM (active). Further, the EC50 is 5.2 µM (active) in experiment [5], > 180 µM (inactive) in experiment [6], 832 nM (active) in [7] and > 150 µM (inactive) in [8].

Consider `CC1=C(C(=O)NC(C)c2ccc3c(c2)OCCO3)C2(CCC(C)CC2)OC1=O` (configuration not stated), for which the IC50 in [9] was 12 µM (active).

With `O=C1CNC(=O)/C1=C\NC12CC3CC(CC(C3)C1)C2`, the IC50 in experiment [10] was 21 µM (inactive).

As to `O=C(Nc1cccc2c(=O)[nH][nH]c(=O)c12)c1ccc([N+](=O)[O-])cc1`, the figures for the IC50 in experiment [11], in experiment [12] and in [13] were 4.92 µM (active), 3.01 µM (active) and 14.2 µM (active), respectively. For the same compound, at Caspase-6, the AC50 is 2.58 µM (active).

Regarding `COc1ccc(-c2cnc3c(NC(C)=O)cc(-c4ccccc4OC)cn23)cc1OC`, the EC50 at Melanocortin receptor 4 was > 89.2 µM (inactive).

In the case of `O=C(O)c1cc(-c2cc(F)c(F)cc2F)[nH]n1`, the EC50 in experiment [14] was > 100 µM (inactive).

`CCc1ccc(C=C2SC(=S)N(CCCC(=O)Nc3ccc(C(=O)O)cc3)C2=O)cc1`: the IC50 in experiment [15] was 80 µM (inactive).
